Results on 9 compounds are retold here after US8785452B2, “Anti-infective compounds” (priority 2008, dated 2014).

One series deals with M. tuberculosis H37Rv-GFP. Nature of the series: microbe, parasite or virus in culture. In kind it is cell-based, Mycobacterium tuberculosis. Conditions: Mycobacterium tuberculosis, H37RV, Macrophage; confirmation, 0.2 uM, intracellular; read-out: QIM Confirm % Inhibition 0.2 uM.
Take `O=C(Nc1ccc(Oc2ccccc2)cc1)C1CCCO1` (stereo not drawn) [IPK 000 033 16]: the inhibition at 0.2 µM was 5%.

As to `N#Cc1ccccc1NC(=O)CSc1nc2ccccc2s1` [IPK 000 018 97], the inhibition at 0.2 µM was found to be 7.3%.

On to `O=C(CSc1cccs1)Nc1nccs1` [IPK 000 002 87], for which the inhibition at 0.2 µM came out at 11.4%.

Regarding `c1ccc(COc2ccc(NCCc3ccncc3)cc2)cc1` [IPK 000 016 00], the inhibition at 0.2 µM is 3.2%.

Still in this series, the particulars now being: Mycobacterium tuberculosis, H37RV, Macrophage; confirmation, 2 uM, intracellular; read-out: QIM Confirm % Inhibition 2 uM.
As to `O=C(Nc1ccc(Oc2ccccc2)cc1)C1CCCO1` (stereo not drawn) [IPK 000 033 16], the inhibition at 2 µM is 69.6%.

Consider `N#Cc1ccccc1NC(=O)CSc1nc2ccccc2s1` [IPK 000 018 97], for which the inhibition at 2 µM stood at 20%.

In the case of `O=C(CSc1cccs1)Nc1nccs1` [IPK 000 002 87], the inhibition at 2 µM is -1.3%.

For the compound `c1ccc(COc2ccc(NCCc3ccncc3)cc2)cc1` [IPK 000 016 00], the inhibition at 2 µM was found to be 19.4%.

The same series, now with this note: Mycobacterium tuberculosis, H37RV, Macrophage; confirmation, 20 uM, intracellular; read-out: QIM Confirm % Inhibition 20 uM.
For the compound `Cc1cc(C)cc(NC(=O)c2cccs2)c1` [IPK 000 192 45], the inhibition at 20 µM was 65.4%.

For `CN(C)c1ccc(/C=C2/c3ccccc3-c3ccc(C(=O)CCCCN4CCCCC4)cc32)cc1` [IPK 000 198 53], the inhibition at 20 µM was found to be 41.9%.

`CSc1nsc(SCc2ccc(C(=O)Nc3ccc(C)cc3C)cc2)n1` [IPK 000 125 08]: the inhibition at 20 µM stood at 65.1%.

As to `O=C(Nc1ccccc1)Nc1ccc(Br)c(Cl)c1` [IPK 000 170 27], the inhibition at 20 µM was 18.9%.

The same series, now with this note: Mycobacterium tuberculosis, H37RV, Macrophage; confirmation, 20 uM; read-out: QIM Confirm % Inhibition 20 uM.
Regarding `O=C(N/N=C/c1cc2c(cc1[N+](=O)[O-])OCO2)c1ccncc1` [IPK 000 058 30], the inhibition at 20 µM was 70.8%.

Regarding `O=C(Nc1ccc(Oc2ccccc2)cc1)C1CCCO1` (stereo not drawn) [IPK 000 033 16], the inhibition at 20 µM worked out at 92.3%.

`N#Cc1ccccc1NC(=O)CSc1nc2ccccc2s1` [IPK 000 018 97]: the inhibition at 20 µM amounted to 83.8%.

As to `O=C(CSc1cccs1)Nc1nccs1` [IPK 000 002 87], the inhibition at 20 µM was determined as 66%.

Turning to `c1ccc(COc2ccc(NCCc3ccncc3)cc2)cc1` [IPK 000 016 00], the inhibition at 20 µM was 37.9%.

The series is the same for the next values; noted with them: Mycobacterium tuberculosis, H37RV, Macrophage; primary screen, 20 μM, intracellular; read-out: Primary QIM % Inhibition.
Regarding `Cc1cc(C)cc(NC(=O)c2cccs2)c1` [IPK 000 192 45], the inhibition at 20 µM was 88.8%.

On to `CN(C)c1ccc(/C=C2/c3ccccc3-c3ccc(C(=O)CCCCN4CCCCC4)cc32)cc1` [IPK 000 198 53], for which the inhibition at 20 µM was 58.5%.

With `CSc1nsc(SCc2ccc(C(=O)Nc3ccc(C)cc3C)cc2)n1` [IPK 000 125 08], the inhibition at 20 µM came to 72.8%.

Consider `O=C(Nc1ccccc1)Nc1ccc(Br)c(Cl)c1` [IPK 000 170 27], for which the inhibition at 20 µM is -72.4%.

The series is the same for the next values; noted with them: Mycobacterium tuberculosis, H37RV, Macrophage; primary screen, 20 μM; read-out: Primary QIM % Inhibition.
For the compound `O=C(N/N=C/c1cc2c(cc1[N+](=O)[O-])OCO2)c1ccncc1` [IPK 000 058 30], the inhibition at 20 µM amounted to 95.5%.

`O=C(Nc1ccc(Oc2ccccc2)cc1)C1CCCO1` (stereo not drawn) [IPK 000 033 16]: the inhibition at 20 µM came to 81.9%.

As to `N#Cc1ccccc1NC(=O)CSc1nc2ccccc2s1` [IPK 000 018 97], the inhibition at 20 µM amounted to 76.7%.

Regarding `O=C(CSc1cccs1)Nc1nccs1` [IPK 000 002 87], the inhibition at 20 µM stood at 65.9%.

As to `c1ccc(COc2ccc(NCCc3ccncc3)cc2)cc1` [IPK 000 016 00], the inhibition at 20 µM was -19%.

The next series has as its system M. tuberculosis H37Rv-GFP. Nature of the series: microbe, parasite or virus in culture. Conditions: Mycobacterium tuberculosis, read-out: QUM Confirm % Inhibition 0.2 uM. In kind it is cell-based.
For the compound `O=C(Nc1ccc(Oc2ccccc2)cc1)C1CCCO1` (stereo not drawn) [IPK 000 033 16], the inhibition at 0.2 µM stood at 34.1%.

Take `N#Cc1ccccc1NC(=O)CSc1nc2ccccc2s1` [IPK 000 018 97]: the inhibition at 0.2 µM worked out at 40.5%.

Regarding `O=C(CSc1cccs1)Nc1nccs1` [IPK 000 002 87], the inhibition at 0.2 µM worked out at 45.9%.

Take `c1ccc(COc2ccc(NCCc3ccncc3)cc2)cc1` [IPK 000 016 00]: the inhibition at 0.2 µM turned out to be 47.1%.

The series is the same for the next values; noted with them: Mycobacterium tuberculosis, read-out: QUM Confirm % Inhibition 2 uM.
For `O=C(Nc1ccc(Oc2ccccc2)cc1)C1CCCO1` (stereo not drawn) [IPK 000 033 16], the inhibition at 2 µM is 42%.

In the case of `N#Cc1ccccc1NC(=O)CSc1nc2ccccc2s1` [IPK 000 018 97], the inhibition at 2 µM stood at 33.9%.

As to `O=C(CSc1cccs1)Nc1nccs1` [IPK 000 002 87], the inhibition at 2 µM was found to be 36.1%.

On to `c1ccc(COc2ccc(NCCc3ccncc3)cc2)cc1` [IPK 000 016 00], for which the inhibition at 2 µM was found to be 48.6%.

The series is the same for the next values; noted with them: Mycobacterium tuberculosis, read-out: QUM Confirm % Inhibition 20 uM.
`O=C(Nc1ccc(Oc2ccccc2)cc1)C1CCCO1` (stereo not drawn) [IPK 000 033 16]: the inhibition at 20 µM is 61.3%.

`N#Cc1ccccc1NC(=O)CSc1nc2ccccc2s1` [IPK 000 018 97]: the inhibition at 20 µM is 36.1%.

For the compound `O=C(CSc1cccs1)Nc1nccs1` [IPK 000 002 87], the inhibition at 20 µM amounted to 36.4%.

Turning to `c1ccc(COc2ccc(NCCc3ccncc3)cc2)cc1` [IPK 000 016 00], the inhibition at 20 µM was found to be 68%.

The test system of the next series is Raw264.7 cells.
Assay: not given
Conditions: mouse, 5 days, 0.2 uM.
Turning to `Cc1cc(C)cc(NC(=O)c2cccs2)c1` [IPK 000 192 45], the “QIM Confirm CellNb 0.2 uM” value was 334.0.

On to `CSc1nsc(SCc2ccc(C(=O)Nc3ccc(C)cc3C)cc2)n1` [IPK 000 125 08], for which the “QIM Confirm CellNb 0.2 uM” value was 388.9.

Still in this series, the particulars now being: mouse, 5 days, 20 uM.
Take `O=C(Nc1ccccc1)Nc1ccc(Br)c(Cl)c1` [IPK 000 170 27]: the “QIM Confirm CellNb 20 uM” value turned out to be 46.9.

Still in this series, the particulars now being: mouse, 5 days, 20 μM.
For `O=C(N/N=C/c1cc2c(cc1[N+](=O)[O-])OCO2)c1ccncc1` [IPK 000 058 30], the “Primary QIM CellNb” value worked out at 98.3.

With `CN(C)c1ccc(/C=C2/c3ccccc3-c3ccc(C(=O)CCCCN4CCCCC4)cc32)cc1` [IPK 000 198 53], the “Primary QIM CellNb” value was 10.2.

The next series deals with Raw264.7 cells. Nature of the series: Cell number (CellNb) from image analysis of the phenotypic cell-based assay. The following applies: confirmation, 0.2 uM.
Turning to `O=C(Nc1ccc(Oc2ccccc2)cc1)C1CCCO1` (stereo not drawn) [IPK 000 033 16], the “QIM Confirm CellNb 0.2 uM” value was found to be 296.1.

With `N#Cc1ccccc1NC(=O)CSc1nc2ccccc2s1` [IPK 000 018 97], the “QIM Confirm CellNb 0.2 uM” value is 288.5.

With `O=C(CSc1cccs1)Nc1nccs1` [IPK 000 002 87], the “QIM Confirm CellNb 0.2 uM” value amounted to 315.9.

With `c1ccc(COc2ccc(NCCc3ccncc3)cc2)cc1` [IPK 000 016 00], the “QIM Confirm CellNb 0.2 uM” value is 278.8.

Still in this series, the particulars now being: confirmation, 2 uM.
Regarding `O=C(Nc1ccc(Oc2ccccc2)cc1)C1CCCO1` (stereo not drawn) [IPK 000 033 16], the “QIM Confirm CellNb 2 uM” value stood at 573.9.

As to `N#Cc1ccccc1NC(=O)CSc1nc2ccccc2s1` [IPK 000 018 97], the “QIM Confirm CellNb 2 uM” value worked out at 299.8.

`O=C(CSc1cccs1)Nc1nccs1` [IPK 000 002 87]: the “QIM Confirm CellNb 2 uM” value turned out to be 246.1.

As for `c1ccc(COc2ccc(NCCc3ccncc3)cc2)cc1` [IPK 000 016 00], the “QIM Confirm CellNb 2 uM” value worked out at 265.4.

The same series, now with this note: confirmation, 20 uM.
As for `O=C(Nc1ccc(Oc2ccccc2)cc1)C1CCCO1` (stereo not drawn) [IPK 000 033 16], the “QIM Confirm CellNb 20 uM” value was 303.9.

On to `N#Cc1ccccc1NC(=O)CSc1nc2ccccc2s1` [IPK 000 018 97], for which the “QIM Confirm CellNb 20 uM” value was found to be 553.9.

Regarding `O=C(CSc1cccs1)Nc1nccs1` [IPK 000 002 87], the “QIM Confirm CellNb 20 uM” value is given as 412.9.

With `c1ccc(COc2ccc(NCCc3ccncc3)cc2)cc1` [IPK 000 016 00], the “QIM Confirm CellNb 20 uM” value amounted to 300.3.

Still in this series, the particulars now being: primary screen, 20 μM.
Consider `O=C(N/N=C/c1cc2c(cc1[N+](=O)[O-])OCO2)c1ccncc1` [IPK 000 058 30], for which the “Primary QIM CellNb” value was determined as 315.8.

`O=C(Nc1ccc(Oc2ccccc2)cc1)C1CCCO1` (stereo not drawn) [IPK 000 033 16]: the “Primary QIM CellNb” value amounted to 283.0.

For `N#Cc1ccccc1NC(=O)CSc1nc2ccccc2s1` [IPK 000 018 97], the “Primary QIM CellNb” value amounted to 314.0.

On to `O=C(CSc1cccs1)Nc1nccs1` [IPK 000 002 87], for which the “Primary QIM CellNb” value turned out to be 350.3.

For `c1ccc(COc2ccc(NCCc3ccncc3)cc2)cc1` [IPK 000 016 00], the “Primary QIM CellNb” value was 93.0.
